Source: the supplement of paper PMC5908809

What was measured:
[1] = tested on: normal NK cells expanded with K562-aAPC; assay: percent inhibition of viability; higher = more inhibition; settings: 72 h, IL-2 2.5 ng/mL
Protocol: (§1)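 Drug sensitivity and resistance testing on K562-aAPC-expanded normal NK cells: 5 concentrations (10-fold steps over a 10,000-fold range), 72 h at 37 °C, viability by CellTiter-Glo normalised to DMSO and benzethonium chloride controls; DSS from the fitted curve.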

[2] = tested on: normal NK cells expanded with K562-aAPC; assay: drug sensitivity score (DSS) (DSS units); higher = more sensitive; extreme values may be limits of the assay; settings: 72 h; IL-2 2.5 ng/mL
Protocol: as §1

[3] = tested on: IMC-1 (IL-2 20 ng/mL); assay: percent inhibition of viability; higher = more inhibition; settings: 72 h
[4] = tested on: normal primary NK cells, pool 2 (3 donors) (IL-2 2.5 ng/mL); assay: as above; settings: 72 h
[5] = tested on: normal primary NK cells, pool 3 (3 donors) (IL-2 2.5 ng/mL); assay: as above; settings: 72 h
[6] = tested on: YT (IL-2 2.5 ng/mL); assay: as above; settings: 72 h
[7] = tested on: NK-92 (IL-2 2.5 ng/mL); assay: as above; settings: 72 h
[8] = tested on: normal primary NK cells, pool 1 (3 donors), resting (IL-2 0 ng/mL); assay: as above; settings: 72 h
[9] = tested on: normal primary NK cells, pool 1 (3 donors) (IL-2 2.5 ng/mL); assay: as above; settings: 72 h
[10] = tested on: SNK-6 (IL-2 2.5 ng/mL); assay: as above; settings: 72 h
[11] = tested on: NK-YS (IL-2 2.5 ng/mL); assay: as above; settings: 72 h
[12] = tested on: KHYG-1 (IL-2 2.5 ng/mL); assay: as above; settings: 72 h
[13] = tested on: KAI3 (IL-2 2.5 ng/mL); assay: as above; settings: 72 h
[14] = tested on: NKL (IL-2 2.5 ng/mL); assay: as above; settings: 72 h
[15] = tested on: DERL-7 (IL-2 2.5 ng/mL); assay: as above; settings: 72 h
[16] = tested on: IMC-1 (IL-2 20 ng/mL); assay: drug sensitivity score (DSS) (DSS units); higher = more sensitive; extreme values may be limits of the assay; settings: 72 h
[17] = tested on: normal primary NK cells, pool 2 (3 donors) (IL-2 2.5 ng/mL); assay: as above; settings: 72 h
[18] = tested on: normal primary NK cells, pool 3 (3 donors) (IL-2 2.5 ng/mL); assay: as above; settings: 72 h
[19] = tested on: YT (IL-2 2.5 ng/mL); assay: as above; settings: 72 h
[20] = tested on: NK-92 (IL-2 2.5 ng/mL); assay: as above; settings: 72 h
[21] = tested on: normal primary NK cells, pool 1 (3 donors), resting (IL-2 0 ng/mL); assay: as above; settings: 72 h
[22] = tested on: normal primary NK cells, pool 1 (3 donors) (IL-2 2.5 ng/mL); assay: as above; settings: 72 h
[23] = tested on: SNK-6 (IL-2 2.5 ng/mL); assay: as above; settings: 72 h
[24] = tested on: NK-YS (IL-2 2.5 ng/mL); assay: as above; settings: 72 h
[25] = tested on: KHYG-1 (IL-2 2.5 ng/mL); assay: as above; settings: 72 h
[26] = tested on: KAI3 (IL-2 2.5 ng/mL); assay: as above; settings: 72 h
[27] = tested on: NKL (IL-2 2.5 ng/mL); assay: as above; settings: 72 h
[28] = tested on: DERL-7 (IL-2 2.5 ng/mL); assay: as above; settings: 72 h

C/C(=C\c1csc(C)n1)[C@@H]1C[C@@H]2O[C@]2(C)CCC[C@H](C)[C@H](O)[C@@H](C)C(=O)C(C)(C)[C@@H](O)CC(=O)O1 [Patupilone] (max concentration tested 1000 nM)
percent inhibition of viability [%]
Settings | 0.1 nM | 1 nM | 10 nM | 100 nM | 1000 nM
[1] | -5.25 | -3.64 | 53.5 | 57.1 | 55.8
[3] | -0.59 | 0.29 | 97 | 99.9 | 99.2
[4] | 2.42 | -5.69 | 2.84 | 6.87 | 6.04
[5] | -13 | -7.53 | 0.9 | 3.45 | 6.6
[6] | -3.08 | -3.77 | 59.4 | 97.9 | 96.7
[7] | -21.3 | -3.29 | 72.4 | 99.8 | 97.7
[8] | -18.5 | -28.5 | 6.09 | 7.49 | 15.2
[9] | -9.75 | -4.17 | 10.3 | 5.4 | 6.51
[10] | 5.42 | 5.23 | 75.5 | 72.6 | 69.5
[11] | -3.81 | -3.75 | 28.9 | 71.3 | 69.9
[12] | -3.34 | -8.41 | 25.7 | 104 | 102
[13] | -13.1 | -4.34 | 44.2 | 60.6 | 50.5
[14] | -9.24 | -10.5 | 34.6 | 93.9 | 90.3
[15] | -4.98 | 5.91 | 98.8 | 99.6 | 99.2

Settings | drug sensitivity score
[2] | 17.1
[16] | 30.1
[17] | 0
[18] | 0
[19] | 24.7
[20] | 26.2
[21] | 0.55
[22] | 0.14
[23] | 24.3
[24] | 17
[25] | 21.9
[26] | 16.4
[27] | 21.7
[28] | 31.1

COc1cc(Nc2c(C#N)cnc3cc(OCCCN4CCN(C)CC4)c(OC)cc23)c(Cl)cc1Cl [Bosutinib] (max concentration tested 10000 nM)
percent inhibition of viability [%]
Settings | 1 nM | 10 nM | 100 nM | 1000 nM | 10000 nM
[1] | 4.72 | 2.21 | 15.7 | 3.76 | 99.9
[3] | -6.46 | 0.66 | -10.5 | -9.81 | 96.6
[4] | -12.2 | -5.59 | -2.85 | 25.5 | 98.1
[5] | 0.05 | -0.81 | 10.8 | -5.33 | 99.8
[6] | 1.55 | 1.24 | 2.37 | 15.2 | 97.2
[7] | -0.68 | -2.8 | -0.62 | 22.4 | 97.7
[8] | -6.19 | -3.78 | 1.15 | 58.5 | 99.3
[9] | -9.61 | -1.56 | 4.38 | 20.6 | 100
[10] | 6.03 | 14.6 | -18.2 | -17.4 | 99.7
[11] | -4.4 | -3.22 | -2.75 | 2.53 | 96.7
[12] | -3.69 | 1.01 | -1.05 | 26.2 | 96.2
[13] | 8.38 | 12 | 3.26 | 31.6 | 97.2
[14] | -12.2 | -8.59 | -6.88 | 0.83 | 95.5
[15] | 1.55 | 6.21 | 8.26 | 37.4 | 100

Settings | drug sensitivity score
[2] | 6.07
[16] | 4.71
[17] | 9.3
[18] | 5.14
[19] | 7.9
[20] | 8.9
[21] | 12.4
[22] | 8.82
[23] | 4.57
[24] | 5.71
[25] | 9.26
[26] | 9.81
[27] | 5.43
[28] | 9.96

CCCNC(=O)Nc1ccc(Oc2ncnc3cc(OC)c(OC)cc23)cc1Cl [KRN-633] (max concentration tested 2500 nM)
percent inhibition of viability [%]
Settings | 0.25 nM | 2.5 nM | 25 nM | 250 nM | 2500 nM
[1] | -6.27 | -2.98 | -3.15 | 2.74 | 8.42
[3] | -4.82 | -0.52 | -0.33 | -1.22 | 4.98
[4] | -10.4 | 4.55 | 1.17 | -2.44 | 3.9
[5] | -5.17 | 5.1 | -2.11 | -6.67 | -1.34
[6] | -4.93 | -5.67 | -0.27 | 4.17 | 16.1
[7] | -15.5 | -4.32 | 5.74 | 16.5 | 24.4
[8] | -6.06 | 5.96 | 3.62 | 7.14 | -4.86
[9] | 0.25 | 12.5 | 7.25 | 8.57 | 1.55
[10] | 0.67 | -10.6 | -7.54 | -16.4 | -0.64
[11] | -5.16 | -9.39 | -4.94 | -0.21 | 16.8
[12] | -7.51 | -5.95 | -2.77 | 2.64 | 8.1
[13] | 2.52 | -4.37 | -1.43 | 15 | 20.2
[14] | -1.85 | 1.84 | 11.4 | 24.8 | 35.1
[15] | -3.34 | 5.83 | -0.63 | -4.25 | 1.83

Settings | drug sensitivity score
[2] | 0
[16] | 0
[17] | 0
[18] | 0
[19] | 0.73
[20] | 2.65
[21] | 0
[22] | 0
[23] | 0
[24] | 0.34
[25] | 0
[26] | 2.05
[27] | 5.19
[28] | 0
